# Test results from patent US8119643B2, “Benzoimidazolyl-pyrazine compounds for inflammation and immune-related uses” (Synta Pharmaceuticals Corp., priority 2006, dated 2012).
# “Also recorded” adds a separate entry of the source.
# How the values were obtained:
# [1] = system: Delayed-Type Hypersensitivity (DTH) reaction; assay: Inhibition of delayed-type hypersensitivity (DTH) reaction in rats; format: in vivo, Lewis rats; conditions: rat DTH; for Inhibition of gross change (%) Ear thickness (mm) / Inhibition of gross change (%) Ear weight (mg): 15 mg/kg orally at −2, +3, +9 hr, 24 hr after OVA challenge, relative to vehicle-treated group; for effect on ear weight after ovalbumin challenge / effect on ear thickness after ovalbumin challenge: compared to vehicle alone; for effect on ear weight after ovalbumin challenge: FIGS. 1 and 2; for effect on ear thickness after ovalbumin challenge: FIGS. 3 and 4
# Method: Lewis rats (n=7 each group) were sensitized with chicken ovalbumin (OVA; Sigma, A5503) and complete Freund's adjuvant (CFA; Sigma F5881) was injected into tail base by s.c. on day 0. On day 7, the animals were challenged with ovalbumin (OVA) on their right ears.
# Compounds 1 and 10 were prepared in vehicle solution (20% Vitamin E TPGS and 80% PEG-8).
# Female Lewis rats, 6-8 weeks of age, were obtained from Charles River Laboratories and permitted to acclimate for one week prior to experimental procedures. Rodents were allowed water and food ad libitum. Animals were housed in accordance with the Institutional Animal Care and Use Committee (IACUC), and experiments were performed in compliance with IACUC guidelines.
# Rat ears were measured with a dial thickness gauge (Mitutoyo gauge #8, Mitutoyo, USA). The swelling response was calculated by subtracting the ear thickness before challenge (baseline) from that of the same ear after challenge. To measure the ear weight, both left and right ears of euthanized rats were punched out with cork holer, the ear weight change was calculated by subtracting the saline-treated left ear weight from that of the OVA-challenged right ear weight.
# Delayed-type hypersensitivity is an in vivo T cell-dependent immune response manifested as an inflammatory reaction that reaches peak intensity 24 hr after OVA challenge. To determine the immunosuppressive effect of Compounds 1 and 10 in the rat DTH reaction, groups of rats (n=7) were administered with either vehicle, Compound 1 or Compound 10, orally three times, starting 2 hr before ear challenge, and 3 and 9 hr after ear challenge.
# IL-2 production = assay: Inhibition of IL-2 production in PHA-activated Jurkat cells (ELISA); format: cell-based; conditions: Homo sapiens, PHA 2.5 μg/mL, 20 hours, IL-2 ELISA
Structure (SMILES),Inhibition of gross change (%) Ear thickness (mm) [1],Inhibition of gross change (%) Ear weight (mg) [1],effect on ear weight after ovalbumin challenge [1],effect on ear thickness after ovalbumin challenge [1],IC50 (IL-2 production)
"COc1ccc2c(c1)nc(C(F)(F)F)n2-c1cnc(NC(=O)c2ccccc2C)cn1 [Compound 10, N-[5-(5-Methoxy-2-trifluoromethyl-benzoimidazol-1-yl)-pyrazin-2-yl]-2-methyl-benzamide]",15%,24%,even stronger effect on reducing ear thickness and weight after challenge than Compound 1; also recorded: reduced ear thickness and weight after challenge more than dosing with cyclosporine A,even stronger effect on reducing ear thickness and weight after challenge than Compound 1; also recorded: reduced ear thickness and weight after challenge more than dosing with cyclosporine A,12 nM
"COc1ccc2c(c1)nc(C(F)(F)F)n2-c1cnc(NC(=O)c2c(F)cccc2F)cn1 [Compound 1, 2,6-Difluoro-N-[5-(5-methoxy-2-trifluoromethyl-benzoimidazol-1-yl)-pyrazin-2-yl]-benzamide]",77%,79%,decreased ear weight; also recorded: significantly inhibited,decreased ear thickness; also recorded: significantly inhibited,6 nM
